System: frog (Rana catesbeiana) skin
Assay: frog skin bioassay (skin darkening measured by reflectance)
Type: cell-based
Settings: for time to reversal of the maximum response after removal of the agonist: 10^−8 M peptide, removal followed by several Ringer's solution washings, FIG. 5; for agonist character and potency compared to native α-MSH (dose-response curves): frog skin pigmentation, decrease in skin reflectance, FIG. 4
Description: The biological activity assay of the EPM-2 was carried out comparatively to the native α-MSH. The classical method of measuring by reflectance the alteration in the frog skin pigmentation was assayed, see, Gen. Comp. Endocrinol. 55, 104 (1984). The potency of the synthesized hormone was determined through a dose-effect curve and long lasting activities were measured until a maximum of 3 h after the peptide removal from the incubation system carried out with successive washes. Briefly, the skin of the thigh and the dorsal portion of a frog were removed and cut in pieces of 2×2 cm which were placed among two rings of PVC and maintained for 1 h in Ringer's solution. After this period, the melanin granules aggregate in the melanocytes, and the skin becomes clearer. When α-MSH or its spin labeled analogue is added to the medium, there is a dispersion of the pigments in the cell, resulting in skin darkening. The change in the coloration is therefore monitored (decrease in the skin reflectance) in a photovolt reflectometer. The result is expressed as percentage in relation to the initial value.

Acetyl-Ser-Tyr-Ser-Met-Glu-His-Phe-Arg-Trp-Gly-Lys-Pro-Val-CONH2 (Ac-SYSMEHFRWGKPV-NH2) [α-MSH, native melanocyte stimulating hormone, comparator, reference compound]
time to reversal of the maximum response after removal of the agonist: 90 min

Acetyl-Toac-Ser-Tyr-Ser-Met-Glu-His-Phe-Arg-Trp-Gly-Lys-Pro-Val-CONH2 [EPM-2]
time to reversal of the maximum response after removal of the agonist: 90 min
agonist character and potency compared to native α-MSH (dose-response curves): fully maintaining the biological potency of the native α-MSH
agonist character and potency compared to native α-MSH (dose-response curves) (listed as labeled analogue): full α-MSH agonist with equivalent potency
natural biological activity maintained (relative to native α-MSH): 100%

— patent US6582968B2, “Paramagnetic and active analogue (EMP-2) of melanocyte stimulating hormone containing amino acid-type stable free radical” (Conselho Nacional de Desenvolvimento Cientifico e …, priority 1999, dated 2003)
